Measured values published in patent publication US11578013B2, “Nitrification inhibitors” (Lincoln University, priority 2020, dated 2023).

How the values were obtained:
[1] = tested on: nitrification in the soil; test: Laboratory soil incubation, Templeton sandy loam with synthetic cow urine, nitrate-N; conditions: day 30
Description: A Templeton sandy loam was used in this experiment. 500 g of soil (dry weight basis) was packed into a pottle. 50 mL of synthetic cow urine with an N concentration of 7 g N/L (comprising about 87% urea-N and 13% glycine-N) was applied to the soil (equivalent to 700 kg N/ha on weight basis, assuming bulk density of 1 g/cm^3 in the top 10 cm of soil). The 700 kg N/ha application was used to simulate the urine-N application rate under a typical dairy cow urine patch in a grazed pasture.
Control treatments also added to soil were: • urine alone (50 mL); • DMSO (equivalent to 0.9 mL/500 g soil)+urine (50 mL) to determine the effect of DMSO on nitrification rate; • water alone (50 mL) (simulating areas of the soil where no urine was deposited).
Pottles were covered with lids with breathing holes to allow for gas exchange during incubation. Pottles were incubated at 12° C. Soil moisture content was maintained at field capacity by adjusting on weight basis twice a week.
Soil samples were collected and were then thoroughly mixed and subsamples were extracted in a potassium chloride solution and analysed for mineral-N. Soil moisture content was also determined. Samples were taken at 30 days after the start of incubation. […]

nitrification = test: Table 1 summary: compounds found to work or not work as nitrification inhibitors, Inhib(%); design: concentration or dose not given beside the values; conditions: test and rate not given
Description: The phenotypic screening involved assessing the nitrification inhibition potency of the selected 5000 compounds against a key ammonia oxidizing bacterium responsible for ammonia oxidation in the soil, Nitrosomonas europaea, in 96-well microtiter plates. N. europaea cells were grown in the presence of an ammonium source, and the potential of putative nitrification inhibitors to inhibit the production of nitrite (NO2) was measured relative to untreated cells.
A summary of selected compounds initially found to either work or not work as nitrification inhibitors is detailed in Table 1 below.

rats = conditions: female rats; cited from earlier work
[2] = relative to table salt; cited from earlier work
[3] = tested on: nitrification in the soil; test: Soil column study with static gas chambers (Study 2-14): nitrate-N and N2O emissions; conditions: 10 kg/ha sprayed to soil surface, soil column
Description: To determine the effect of treating the soil with 4-Ethynylanisole on nitrification rate and nitrous oxide emissions, soil column studies with static gas chambers were conducted. The experiment was conducted in cylindrical PVC containers (Diameter=186 mm, Height=240 mm). The containers were filled with soil to half of the container's height (120 mm), leaving 120 mm headspace. The soil was Templeton sandy loam collected from Lincoln University Research Dairy Farm. It was screened using a 5 mm sieve and air-dried to the required moisture level and packed to bulk density of 1 g/cm3.
The experiment was conducted under controlled conditions. The temperature of the soil columns were maintained at around 12° C. by using a water bath to control the temperature.
The treatments included Control (Water), Control (animal urine), Control (urine+DMSO), Control (urine+DCD at 10 kg/ha) and urine+4-Ethynylanisole (10 kg/ha) in DMSO. Synthetic cow urine was applied at 700 kg N/ha (comprising about 87% urea-N and 13% glycine-N), and 4-Ethynylanisole was applied at 10 kg/ha. There were two sets of cores for each treatment, one set were fitted with static gas chambers with removable lids for nitrous oxide sampling, and the other set used for soil sampling. The urine was sprayed to the surface of the soil simulating urine deposition by a grazing animal; DMSO, or DCD or 4-Ethynylanisole mixed with DMSO was also sprayed onto the urine treated soils to simulate the treatment of urine patches. Nitrous oxide gas measurements followed these treatments—as is detailed further below.
For the soil columns that were set up for taking soil samples for analysis of mineral nitrogen, the different treatments were mixed with the soil for soil sampling. Soil moisture was adjusted to 100% field capacity (FC) and maintained between 80 and 100% FC over the duration of the experiment.
Nitrous oxide (N2O) gas sampling was conducted twice a week using the standard procedure (Di et al., 2007). Vials were evacuated prior to sampling. Three gas samples were taken with 20 minute intervals between each sampling. Sampling frequency was reduced to once a week when N2O fluxes decreased in intensity.
Soil sampling was conducted on Day 1, 7, 14, 30, and 60. The soil samples were analysed for mineral nitrogen.

Compound | nitrate-N concentration in the soil compared with urine alone or urine+DMSO ([1]; 1 kg/ha) | nitrate-N concentration in the soil compared with urine alone or urine+DMSO ([1]; 2 kg/ha) | melting point [°C] | Inhib(%) (nitrification) | oral LD50 (rats) | toxicity rating [2] | N2O—N emissions lower than urine alone control [3] [%]
C#Cc1ccc(OC)nn1 [3-Ethynyl-6-methoxypyridazine] | lower nitrate-N concentrations | lower nitrate-N concentrations | 51.7 to 53.1 | – | – | – | –
C#Cc1cnc(OC)nc1 [5-Ethynyl-2-methoxypyrimidine] | lower nitrate-N concentrations | lower nitrate-N concentrations | 82.3 to 83.1 | 100 | – | – | –
N#CNC(=N)N [DCD, dicyandiamide] | – | – | – | – | greater than 30,000 mg kg^−1 body weight | 10 times less toxic than table salt | 43.4
